Values of other authors, collected in paper PMC2895553 (Journal of the American Chemical Society, 2010).

Tested on: αvβ3 integrin

cyclo(-Arg-Gly-Asp-DPhe-(Me)Val-] [Cilengitide]
activity as inhibitor for the αvβ3 integrin: 0.5 nM
